Assay results as given in ChEMBL document CHEMBL1201862, “PubChem BioAssay data set” (2004).
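Results reflect a 48-hour exposure of cells in 96-well plates to compound at five concentrations. The concentration for 50% growth inhibition is given as GI50.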 Activity calls are given as the source filed them. No stated cut-off is given here; in the data, active = GI50 up to about 1.1 µM and inactive = higher.

Columns and labels:
Assay in all cases: inhibition of tumour cell growth, NCI panel, 48 h
[1] = system: HOP-18
[2] = system: DMS-114
[3] = system: SNB-78
[4] = system: KM-20L2
[5] = system: DLD-1
[6] = system: RXF 631
[7] = system: DMS-273
[8] = system: M19-MEL
[9] = system: XF498

Measured: GI50

COC(=O)C1=NC(=S)NC(c2ccccc2)C1c1nc2ccccc2s1 (stereo not given)
inactive: [1] > 100 µM | [2] > 100 µM | [3] > 100 µM | [4] > 100 µM | [5] > 100 µM | [6] > 100 µM | [7] > 100 µM | [8] > 100 µM

CCCC(=O)N[C@H]1C2C3CC4C5CC(C42)C1(C)C53 (stereo not given in full)
inactive: [1] > 100 µM | [3] > 100 µM | [4] > 100 µM | [5] > 100 µM | [7] > 100 µM | [8] > 100 µM

COc1ccc(/C=C2\CCC(Cc3ccccc3)(CN(C)C)C2=O)cc1 (stereo not given)
inactive: [1] > 100 µM | [2] 18.2 µM | [3] 35.5 µM | [4] 23.4 µM | [5] 26.4 µM | [7] 15.2 µM | [8] 28.4 µM

N#CC(C#N)=C1NC(=O)C(c2ccccc2)C(=O)N1 (stereo not given)
inactive: [9] > 100 µM | [2] > 100 µM | [3] > 100 µM | [4] > 100 µM | [5] > 100 µM | [6] > 100 µM | [7] > 100 µM | [8] > 100 µM

C[C@]12CCC(=O)C=C1CC[C@@H]1[C@@H]2C(=O)C[C@@]2(C)[C@H]1CC[C@]2(O)C(=O)CO [CORTISONE]
inactive: [1] > 100 µM | [9] > 100 µM | [2] > 100 µM | [4] > 100 µM | [5] > 100 µM | [7] > 100 µM | [8] > 100 µM

O=C(NCCCCCCNC(=O)OCCSCCn1cc(C(=O)NC(=O)OCc2ccccc2)c(=O)[nH]c1=O)OCCSCCn1cc(C(=O)NC(=O)OCc2ccccc2)c(=O)[nH]c1=O
inactive: [9] > 100 µM | [2] > 100 µM | [3] > 100 µM | [4] > 100 µM | [5] > 100 µM | [6] > 100 µM | [7] > 100 µM | [8] > 100 µM

COCCOCOC(C)(C)[C@H](CCOC(C)=O)O[Si](c1ccccc1)(c1ccccc1)C(C)(C)C
inactive: [1] 30.3 µM | [2] 12.6 µM | [3] 22.9 µM | [4] 18.7 µM | [5] 13.5 µM | [6] 13.4 µM | [7] 5.3 µM | [8] 13.1 µM

CCOC(=O)C1CC(=O)C=C2CCCCC21 (stereo not given)
inactive: [9] > 100 µM | [2] > 100 µM | [3] > 100 µM | [5] > 100 µM | [6] > 100 µM | [7] > 100 µM | [8] > 100 µM

Cn1ccnc1CCc1ccc(Cl)cc1Cl
inactive: [1] > 100 µM | [2] 56.8 µM | [3] > 100 µM | [4] > 100 µM | [5] > 100 µM | [6] > 100 µM | [7] > 100 µM | [8] > 100 µM

CC(=O)O[C@H]1[C@@H]2[C@@H]3[C@@H](C[C@H]1C)[C@@H](C)CO[C@@]1(C)CC/C=C(/C)C[C@@H]2O[C@@H]31
inactive: [1] > 100 µM | [9] > 100 µM | [2] > 100 µM | [4] > 100 µM | [5] > 100 µM | [6] > 100 µM | [7] > 100 µM | [8] > 100 µM

COc1ccc(NC(=O)CC/C(CC(=O)c2ccco2)=N/NC(N)=S)cc1
inactive: [1] > 100 µM | [9] > 100 µM | [2] > 100 µM | [3] > 100 µM | [4] > 100 µM | [5] > 100 µM | [6] > 100 µM | [7] > 100 µM | [8] > 100 µM

CC1=C2[C@@H](c3ccccc3)C3C=CC2(c2ccccc23)N(C(=O)Nc2cccc3ccccc23)C1=O (stereo not given in full)
inactive: [1] > 100 µM | [9] > 100 µM | [2] > 100 µM | [3] > 100 µM | [4] > 100 µM | [7] > 100 µM

CCOC(=O)Nc1ccc2c(c1)N(C(=O)CCN(CC)CC)c1ccccc1S2 [ETHACIZINE]
inactive: [1] 42 µM | [9] 18.1 µM | [2] 18.2 µM | [3] 5.18 µM | [4] 19.3 µM | [5] 29.1 µM | [7] 27 µM | [8] 32.1 µM

O=C1NCC2=C1CCC1c3ccccc3CCN21 (stereo not given)
inactive: [9] > 100 µM | [2] > 100 µM | [3] > 100 µM | [4] > 100 µM | [5] > 100 µM | [7] > 100 µM | [8] > 100 µM
